Data set [1] in a line: Micellization and Surface Tension Reduction. The note with it: in water. It is filed as physicochemical. The source says: The appearance and development of micelles are important since detergency (solubilization of soils) by dishwashing liquids, shampoos, detergents, etc., depend on the formation of these aggregates in solution.
Data set [2] is described as follows: Krafft Point (Water Solubility Test). The settings on record: for Krafft Point (0.1%): 0.1% dispersion in water by weight; for water solubility (in words): 0.1% in water, Krafft point test.
Protocol: The temperature at and above which surfactants begin to form micelles instead of precipitates is referred to as the Krafft point (Tk) and at this temperature the solubility of a surfactant becomes equal to its CMC (numerical value at which micelles are formed).
The Krafft point was measured by preparing 650 ml of a 0.1% dispersion of surfactant in water by weight. If the surfactant was soluble at room temperature, the solution was slowly cooled to 0° C. […] If it precipitated out of solution, the temperature at which precipitation occurs was taken as the Krafft point.
If the surfactant was insoluble at room temperature, the dispersion was slowly heated until the solution became homogeneous. It was then slowly cooled until precipitation occurred. The temperature at which the surfactant precipitates out of solution upon cooling was taken as the Krafft point.
The nature of data set [3]: Ross-Miles Foam Height of Various Sugar Based Surfactants. The settings on record: 0.1% surfactant, 50° C.; for Initial foam height / Final foam height (10 min.): 0 ppm hardness; for Final foam height (10 min.): after 10 minutes; for solubility in foam height test (in words): foam height cannot be measured if insoluble.
Protocol: Since most of the foaming data on surfactants is typically obtained by the Ross-Miles Foam Height Assay (Ross, J. and Miles, G. D. Am Soc. for Testing material Method D1173-63 Philadelphia, Pa. (1953); Oil & Soap (1958)62:1260) the foaming ability of these surfactants were acquired using this method.
In the Ross-Miles method, 200 mL of a surfactant solution contained in a pipette of specified dimensions with a 2.9 -mm-i.d. orifice is allowed to fall 90 cm onto 50 mL of the same solution contained in a cylindrical vessel maintained at a given temperature by means of a water jacket. The height of the foam produced in the cylindrical vessel is read immediately after all the solution has run out of the pipette and then again after a given amount of time.
Using this method, the foam production (initial foam height in mm) and foam stability (final foam height after 10 minutes as measured in mm) were measured at 0.1% sugar surfactant concentration, 50° C. and 0 ppm (parts per million) hardness.
Data set [4] can be described thus: Foaming of a Prototype Detergent Formulation (Ross Miles Foam Height Method). It is filed as physicochemical. The settings on record: for Foam height of formulation, 5 min / Foam height of formulation, 10 min / Foam height of formulation, Initial: formulation with 4% of the compound, 0.4% formulation, 25° C., 18 FH. The source says: A prototype detergent formulation comprising a hydroxy containing alkyl glycamide surfactant was made and tested to an identical formulation containing a non-hydroxy containing alkyl glycamide. The formulation is as follows: […]
C10 -C14 Linear Alkylbenzene Sulfonate
C12 -C15 Alcohol Ethoxylate Containing 7 Units of
Dodecyl 5-Hydroxy D-Glucamide (or Comparative)
Sodium Tripolyphosphate 30
Sodium Carboxymethyl Cellulose

Data set [5] in a line: Clarity Enhancement of prototype detergent compositions with sodium lauryl sulfate. It is filed as physicochemical. The note with it: 3% compound with 15.0% sodium lauryl sulfate, room temperature; for Appearance: stored 6 months. As to the method:
The prototype detergent composition is as follows:
Hydroxy Containing Alkyl
Glycamide (or Comparative)
Sodium Chloride 2.0% Viscosity Cobuilder
The above formulations were prepared by admixing the above ingredients in listed order and heating the mixture to about 80° C. with rapid stirring. The mixture was then cooled to about 40° C., placed in a clear jar and stored at room temperature for 6 months.

Another data set relates to zein. As to the method: The zein solubilization assay was developed to determine the biological effects of surfactants on the skin. The protein is normally insoluble in water, but can be brought into solution by interaction with surfactants. The extent of zein dissolved is related to the irritation potential (M. J. Schwinger, Kolloid-Z.Z. Poly., 233, 848, 1969). The greater the zein solubilization, the greater the irritation potential of that surfactant on the skin.
Thus, a 1% solution of surfactant (30 mls) was added to 1.5 g of zein and stirred at room temperature for 1 hours. Residual zein was collected and dried to constant weight. Differences between starting and residual weight were used to calculate % zein solubilized.

`CCCCCCCCCCNC(=O)[C@H](O)[C@@H](O)[C@H](O)[C@H](O)CO` [Decyl D-Gluconamide]: in data set [1], the “Micellization and Surface Tension Reduction” value was “Yes”. For the same compound, the “Krafft Point (0.1%)” value in data set [2] came to 75 °C. In addition, in data set [3], the Initial foam height is given as 199 mm and the “Final foam height (10 min.)” value came out at 6 mm.
Consider `CCCCCCCC(O)CCCC(=O)NC[C@H](O)[C@@H](O)[C@H](O)[C@H](O)CO` (stereo partly drawn) [Dodecyl 5-Hydroxy D-Glucamide, dodecyl 5-hydroxy D-glucamide], for which the “foaming of formulation (in words)” value in data set [4] (compared to identical formulation with dodecyl methyl D-glucamide) is “low foaming compared to identical formulations containing dodecyl methyl D-glucamide”. Besides, in data set [4], the “Foam height of formulation, 5 min” value is listed as 94 mm; the “Foam height of formulation, 10 min” value is recorded as 75 mm; the “Foam height of formulation, Initial” value is on record as 125 mm. In addition, the Appearance result in data set [5] (listed as C12 5-Hydroxy D-Glucamide) is on record as “Clear”. Moreover, the Appearance entry in data set [5] (listed as dodecyl 5-hydroxy glucamide) was “stay in solution”. Besides, in data set [1], the “Micellization and Surface Tension Reduction” value was “Yes”. Moreover, the “Krafft Point (0.1%)” value in data set [2] was 41 °C. Further, in data set [3], the Initial foam height was 67 mm and the “Final foam height (10 min.)” value is listed as “Negligible”. In addition, in the data set with zein, the “% Zein Solubilized” value stood at 7% and the “mildness / zein solubilization (in words)” value is recorded as “less zein solubilization”.
In the case of `CN(C[C@H](O)[C@@H](O)[C@H](O[C@H]1O[C@H](CO)[C@@H](O)[C@H](O)[C@H]1O)[C@H](O)CO)C(=O)CCCCCCCCCCCO` [Dodecyl 12-Hydroxy Methyl D-Maltamide, dodecyl 12-hydroxy methyl D-maltamide], in data set [1], the “Micellization and Surface Tension Reduction” value is given as “Yes”. The “Krafft Point (0.1%)” value in data set [2] is less than 21 °C. In data set [3], the Initial foam height came out at 57 mm and the “Final foam height (10 min.)” value is reported as “Negligible”.
With `CCCCCCCCCCCC(=O)NC[C@H](O)[C@@H](O)[C@H](O)[C@H](O)CO` [Dodecyl D-Glucamide, dodecyl D-glucamide], in data set [5], the Time to precipitation was not above 3 days and the Appearance result is on record as “Precipitate”. Further, in data set [5] (listed as C12 D-Glucamide), the Time to precipitation is reported as 3 days. In addition, in data set [1], the “Micellization and Surface Tension Reduction” value is reported as “No”. In data set [2], the “Krafft Point (0.1%)” value was more than 100 °C and the “water solubility (in words)” value is “Insoluble”. In addition, in data set [3], the “solubility in foam height test (in words)” value is “Insoluble”.
In the case of `CCCCCCCCCCCCNC(=O)[C@H](O)[C@@H](O)[C@H](O)[C@H](O)CO` [Dodecyl D-Gluconamide], the “Micellization and Surface Tension Reduction” value in data set [1] is listed as “No”. Also, in data set [2], the “Krafft Point (0.1%)” value was more than 100 °C and the “water solubility (in words)” value is listed as “Insoluble”. Also, the “solubility in foam height test (in words)” value in data set [3] is “Insoluble”.
With `CCCCCCCCCCCCNC(=O)[C@@H](O)[C@H](O)[C@@H](O)[C@@H](O)CO` [Dodecyl L-Gluconamide], the “Micellization and Surface Tension Reduction” value in data set [1] was “No”. Also, in data set [2], the “Krafft Point (0.1%)” value was more than 100 °C and the “water solubility (in words)” value is given as “Insoluble”. The “solubility in foam height test (in words)” value in data set [3] was “Insoluble”.
As for `CCCCCCCCCCCC(=O)N(C)C[C@H](O)[C@@H](O)[C@H](O)[C@H](O)CO` [Dodecyl Methyl D-Glucamide, dodecyl methyl D-glucamide], in data set [4], the “Foam height of formulation, 5 min” value is 110 mm; the “Foam height of formulation, 10 min” value is given as 100 mm; the “Foam height of formulation, Initial” value is 135 mm. For the same compound, in data set [1], the “Micellization and Surface Tension Reduction” value is “Yes”. Also, the “Krafft Point (0.1%)” value in data set [2] turned out to be 45 °C. In data set [3], the Initial foam height was 173 mm and the “Final foam height (10 min.)” value amounted to 157 mm.
As for `CCCCCCCCCCCCCCCC(=O)NC[C@H](O)[C@@H](O)[C@H](O)[C@H](O)CO` [Hexadecyl D-Glucamide], in data set [1], the “Micellization and Surface Tension Reduction” value was “No”. For the same compound, in data set [2], the “Krafft Point (0.1%)” value is more than 100 °C and the “water solubility (in words)” value was “Insoluble”. Also, in data set [3], the “solubility in foam height test (in words)” value was “Insoluble”.
As for `CCCCCCCCCCCCCCCCNC(=O)[C@H](O)[C@@H](O)[C@H](O)[C@H](O)CO` [Hexadecyl D-Gluconamide], the “Micellization and Surface Tension Reduction” value in data set [1] was “No”. Also, in data set [2], the “Krafft Point (0.1%)” value was more than 100 °C and the “water solubility (in words)” value is given as “Insoluble”. In addition, the “solubility in foam height test (in words)” value in data set [3] is “Insoluble”.
On to `CCCCCCCCCCCCCCCCCC(=O)NC[C@H](O)[C@@H](O)[C@H](O)[C@H](O)CO` [Octadecyl D-Glucamide], for which the “Micellization and Surface Tension Reduction” value in data set [1] is reported as “No”. In data set [2], the “Krafft Point (0.1%)” value is more than 100 °C and the “water solubility (in words)” value is on record as “Insoluble”. The “solubility in foam height test (in words)” value in data set [3] is given as “Insoluble”.
Regarding `CCCCCCCCNC(=O)[C@H](O)[C@@H](O)[C@H](O)[C@H](O)CO` [Octyl D-Gluconamide], the “Micellization and Surface Tension Reduction” value in data set [1] is “Yes”. Besides, the “Krafft Point (0.1%)” value in data set [2] stood at 12 °C. Further, in data set [3], the Initial foam height came to 0 mm and the “Final foam height (10 min.)” value amounted to 0 mm.
With `CCCCCCCCCCCCCC(=O)NC[C@H](O)[C@@H](O)[C@H](O)[C@H](O)CO` [Tetradecyl D-Glucamide], the “Micellization and Surface Tension Reduction” value in data set [1] was “No”. In data set [2], the “Krafft Point (0.1%)” value was more than 100 °C and the “water solubility (in words)” value is reported as “Insoluble”. For the same compound, the “solubility in foam height test (in words)” value in data set [3] was “Insoluble”.
With `CCCCCCCCCCCCCCNC(=O)[C@H](O)[C@@H](O)[C@H](O)[C@H](O)CO` [Tetradecyl D-Gluconamide], the “Micellization and Surface Tension Reduction” value in data set [1] is listed as “No”. For the same compound, in data set [2], the “Krafft Point (0.1%)” value is more than 100 °C and the “water solubility (in words)” value is given as “Insoluble”. Further, the “solubility in foam height test (in words)” value in data set [3] is reported as “Insoluble”.
`CCCCCCCC(O)CCC(=O)NC[C@H](O)[C@@H](O)[C@H](O)[C@H](O)CO` (stereo partly drawn) [Undecyl 4-Hydroxy D-Glucamide, undecyl-4-hydroxy D-glucamide]: the “Micellization and Surface Tension Reduction” value in data set [1] was “Yes”. Also, the “Krafft Point (0.1%)” value in data set [2] worked out at 37 °C. Further, in data set [3], the Initial foam height worked out at 60 mm and the “Final foam height (10 min.)” value is on record as “Negligible”.

The values above are taken from patent US5750733A, “Hydroxy containing alkyl glycamides, low foaming detergent compositions comprising such and a process for their manufacture” (Lever Brothers Company, Division of Conopco, Inc., priority 1996, dated 1998).
